# From US20070025997A1, “Use of biomolecular targets in the treatment and visualization of brain tumors” (priority 2002, published 2007)
# Entries after “also recorded” stand apart in the source; their conditions may differ.
# Columns and labels:
# MMP-2 = assay: Gelatin zymography of conditioned media (MMP-2 activation); format: cell-based, human
# Description: Zymography: Serum-free media from G140 cell lines were stimulated with Collagen type I (10 μg/mL and collected after 24 hr. In some experiments, GM6001 (25 μM, 50 μM) was added to the media. The media was mixed with Tris-Gycine SDS Sample buffer (2×) and 20 μg of protein was subjected to 10% SDS-polyacrylamide gel electrophoresis (Invitrogen, Inc.) using 0.1% gelatin. After electrophoresis, gels were incubated in 2.5% Triton X-100 (Renaturing Buffer, Invitrogen, Inc.) for 30 minutes twice to remove SDS, and replaced with 50 mM Tris-Hcl, pH 7.5 containing 0.15 M NaCl, 10 mM CaCl2, and 0.02% NaN3 (Developing Buffer, Invitrogen, Inc.) overnight and then stained with Coomassie Blue R-250 for 30 minutes.
# DDR1 [1] = assay: Immunoprecipitation for DDR1 phosphorylation; format: cell-based, human; settings: G140 parental cells; 10 μg/ml soluble
# Description: (§1) Immunoprecipitation for DDR1 phosphorylation: Rat tail collagen type 1 was purchased from Collaborative Biomedical Products (Bedford, Mass., USA). Cells were stimulated with 10 μg/ml soluble collagen type 1 for various periods of time. Cell lysates were prepared in RIPA buffer and immunoprecipitation was performed by incubating 1000 μg of cell extracts with DDR1 (C-20) antibody overnight at 4° C. Protein A beads (Santa Cruz Biotechnology: 50 μl) were added for 1 hr; the beads were washed three times with wash buffer and aliquots of the supernatant were subjected to SDS-PAGE. The blots were probed with monoclonal anti-phosphotyrosine antibody (4G10; Upstate Biotechnology Inc.) and visualized using the enhanced chemiluminescence (ECL) system (Amersham Pharmacia Biotech, Uppsala, Sweden). The blots were stripped and reprobed with a polyclonal antibody for DDR1 (C-20). Western Blot. The blots were probed with β-actin antibody to confirm equal loading.
# MMP-1, MMP-2 and MMP-9 = assay: Gelatin zymography of media of DDR1 overexpressing glioma cells (Example 1); format: cell-based, human; settings: 20 ug/ml; 48 hrs; serum-free medium
# Description: DDR1 overexpressing glioma cells reveal increased prescence of MMP-9, MMP-2 and MMP-1. Cells overexpressing DDR1a and DDR1b, DDR1 ex (extracellular domain construct) and Emmprin ex (extracellular domain construct), Ht1080 cells and human Fibroblasts, cells expressing empty vector were plated onto plates. After 24 hrs of plating, media was replaced with Serum-free medium with or without 20 ug/ml Type 1 Collagen and were incubated for 48 hrs at 37° C. Media from cells was collected and concentrated. 10 ug of media from each sample was resolved on a polyacrylamide gel (10%) containing 0.1% gelatin. Following electrophoresis, gels were washed twice with 5% Triton X-100 (30 min each). After washing, the gels were incubated for 24 h at 37° C. in the presence of 50 mM Tris-HCl, 5 mM CaCl2, 5 μM ZnCl2, pH 7.5, stained with Coomassie Brilliant Blue R-250 for 30 min and then destained. MMP-1, MMP-2 and MMP-9 production was induced by native type I collagen.
# DDR1 [2] = biological target: T1, DDR1 (Homo sapiens, UniProt Q08345); assay: DDR1 activation in Glioma cells, anti-phosphotyrosine western blot; format: cell-based; parameters: DDR1 is phosphorylated as a 125 kD (full length) protein; settings: 60 minutes, 10 ug/ml (EGF 20 ng/ml)
# Description: DDR1 activation in Glioma cells. DDR1 Glioma cells were stimulated with 10 ug/ml of Type1 collagen, 10 ug/ml Vitrogen, 10 ug/ml Fibronectin and 20 ng/ml EGF for 60 minutes. After stimulation, cells were lysed in RIPA buffer and resolved a 10% polyacrylamide gel (10%) gel. Lane 1, Nonstimulates, Lane 2, Type 1 Collagen (10 ug/ml, Lane 3 stimulated with Vitrogen (10 μg/ml), Lane 4 stimulated with human Fibronectin (10 μg/ml), Lane 5 stimulated with EGF 20 ng/ml) for 60 minutes. Cell lysates were analysed by anti-phosphotyrosine (4G10, Upstate Biotechnology) panel a, anti-DDR1 (C-20, Santa Cruz Biotechnology Inc.) panel b, and anti-DDR1 N-terminal H-126 (SCBT) panel c by western blotting. […] DDR1 is proteolytically cleaved in response to ligand stimulation. A 52 kD soluble protein was detected in the media with H-126, a N-terminal anti-DDR1 antibody (panel c).
# Target sequence in this assay (Q08345 19-913): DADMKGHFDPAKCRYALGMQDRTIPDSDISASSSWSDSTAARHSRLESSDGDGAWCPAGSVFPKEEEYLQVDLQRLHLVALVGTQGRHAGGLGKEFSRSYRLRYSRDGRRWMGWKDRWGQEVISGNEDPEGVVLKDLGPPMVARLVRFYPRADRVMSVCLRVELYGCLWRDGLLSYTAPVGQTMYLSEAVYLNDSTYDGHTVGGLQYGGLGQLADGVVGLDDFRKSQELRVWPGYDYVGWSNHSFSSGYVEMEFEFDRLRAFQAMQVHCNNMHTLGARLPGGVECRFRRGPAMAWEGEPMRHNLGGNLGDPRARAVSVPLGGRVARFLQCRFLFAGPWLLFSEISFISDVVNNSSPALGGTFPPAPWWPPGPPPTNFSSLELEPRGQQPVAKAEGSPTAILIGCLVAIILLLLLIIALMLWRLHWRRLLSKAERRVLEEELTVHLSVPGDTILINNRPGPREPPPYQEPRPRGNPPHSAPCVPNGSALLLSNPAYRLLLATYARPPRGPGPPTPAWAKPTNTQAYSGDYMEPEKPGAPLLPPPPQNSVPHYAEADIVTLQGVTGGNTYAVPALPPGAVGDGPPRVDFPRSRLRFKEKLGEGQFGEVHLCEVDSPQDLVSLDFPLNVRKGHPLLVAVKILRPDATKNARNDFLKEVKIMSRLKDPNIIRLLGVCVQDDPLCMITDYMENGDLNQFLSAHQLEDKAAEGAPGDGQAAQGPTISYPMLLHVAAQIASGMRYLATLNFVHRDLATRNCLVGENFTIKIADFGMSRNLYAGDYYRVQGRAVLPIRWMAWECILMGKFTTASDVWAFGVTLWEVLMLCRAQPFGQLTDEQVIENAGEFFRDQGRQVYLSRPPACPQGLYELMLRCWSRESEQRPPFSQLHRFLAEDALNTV
# DDR1 [3] = biological target: T1, DDR1; assay: DDR1 internalization, Cellomics ArrayScan; format: cell-based; parameters: DDR1 is phosphorylated as a 125 kD (full length) protein; settings: human Glioma derived cells; soluble, 30 minutes
# Description: Cells are rinsed once with HBSS and fixed with 3.7% neutral buffered formalin. The fixation solution is aspirated, and the plate washed with blocking buffer, and then incubated with permeabilization buffer for 10 minutes. The cells are then stained with fluorescence conjugated secondary antibody solution containing 10 ug/ml Hoechst 33342 (to stain nuclei) for 30 minutes at room temperature. Plates are washed twice, sealed, and stored in HBSS at 4 C. Images are acquired using the ArrayScan HCS system and internalized receptors quantitated using a proprietary algorithm. The algorithm measures the appearance and intensity of fluorescent receptor aggregates inside the cell. These measurements are represented as mean cytoplasmic intensity (amount of antibody-receptor complex inside the cell) and mean cytoplasmic texture (a measure of the endosome aggregates). Antibodies that trigger receptor internalization are further evaluated. Antibodies that bind to DDR1 on human glioma cells and become internalized are of particular interest. In some instances endocytosis serves as a surrogate marker for other therapeutic biologic effects, such as growth inhibition.
# DDR1 internalization. Human Glioma derived were treated with soluble collagen I for 30 minutes and then stained for DDR1. The Cellomics ArrayScan fluorescent microscope instrument was used to identify and quantitate internalized DDR1 (FIG. 8).
# Target sequence in this assay (Q08345 19-913): as above
# DDR1 [4] = biological target: T1, DDR1; assay: Immunoprecipitation for DDR1 phosphorylation; format: cell-based; parameters: expressed in transfected cells; host or cells: G140 glioma cells stably transduced with a pLEN retroviral vector carrying DDR1a or DDR1b; settings: 10 μg/ml soluble
# Description: as §1
# G140-DDR1a cells [5] = assay: Invasion assay through Matrigel-coated Fluoroblok membranes; format: cell-based, human; settings: 25 μM
# Description: (§2) Migration and Invasion Assays: Migration assays were performed using 24-well fluoroblok chambers (BD Biosciences, […] pore size). Cells overexpressing DDR1a, DDR1 b, vector alone (Mock) and parental cells were trypsinized and 1×10^6 cells were suspended in DMEM plus 1% serum. 100, 000 cells were placed in the upper chambers (Becton Dickenson-Fluoroblok plates-8 μm) in triplicate. DMEM with 5% serum was added to the lower chambers. After 4 hours, cells adhering to the underside of the membrane were stained with 4 μg/ml Calcein AM (Molecular Probes, Inc.) and fluorescence emitted by cells that have migrated through the chamber to the underside of the filter was measured at λs of 530/590 nm using a CytoFlor plate reader (Series 4000, Perspective Biosystems). For Invasion Assays: Rat tail Collagen type I (BD Biosciences, 10 μg/ml), human Collagen type IV (BD Biosciences, […]), human Fibronectin (BD Biosciences, 5 μg/ml) were used to coat the underside of the chambers and Fluoroblok plates previously coated with Matrigel (BD Biosciences, 24 wells) were used. […] The cells were allowed to invade through the matrices at 37° C. for 16 hrs and stained with Calcein AM and fluorescence emitted by cells was measured at Xs of 530/590 nm using a CytoFlor plate reader (Series 4000, Perspective Biosystems). […]
# G140-DDR1a cells [6] = assay: Invasion assay through Collagen type 1 coated membranes; format: cell-based, human; settings: 25 μM
# Description: as §2
# glioma cells = assay: Migration assay in Fluoroblok chambers; format: cell-based, human; settings: glioma cells overexpressing DDR1a
# Description: as §2
compound,measurement,setting,value
"Collagen type 1: Rat tail collagen type 1, DDR1 ligand used to stimulate cells",conversion of intermediate (64 kDa) to active form of MMP-2 (62 kDa),"MMP-2; 10 μg/ml, G140-DDR1a overexpressing cells",increased conversion
same,MMP-2 activation,"MMP-2; 10 μg/ml, G140 parental, G140-DDR1b and G140 mock cells",did not increase
same,time of peak autophosphorylation of endogenous DDR1,DDR1 [1],60 min
same,"MMP-1, MMP-2 and MMP-9 production","MMP-1, MMP-2 and MMP-9",induced
same,activation of pro-MMP-2 and Pro-MMP-1,"MMP-1, MMP-2 and MMP-9",Increased activation
same,tyrosine phosphorylation of DDR1,DDR1 [2]; listed as Type 1 Collagen,phosphorylated; also recorded: resulted in tyrosine phosphorylation of DDR1
same,"DDR1 internalization (mean cytoplasmic intensity, cytoplasmic texture)",DDR1 [3],induces DDR1 to appear in the cytoplasm
same,time of maximal DDR1a phosphorylation,DDR1 [4]; G140-DDR1a cells,60 min
same,time of peak phosphorylation of G140-DDR1b,DDR1 [4]; G140-DDR1b cells,90 min
"EGF: EGF 20 ng/ml, used to stimulate DDR1 Glioma cells",tyrosine phosphorylation of DDR1,DDR1 [2],phosphorylated; also recorded: resulted in tyrosine phosphorylation of DDR1
CNC(=O)[C@H](Cc1c[nH]c2ccccc12)NC(=O)[C@@H](CC(=O)NO)CC(C)C [GM6001],DDR1a mediated invasion through matrigel,G140-DDR1a cells [5],prevented
same,DDR1a mediated invasion through matrigel,G140-DDR1a cells [5]; listed as GM60001,inhibited
same,DDR1a mediated invasion through collagen type 1,G140-DDR1a cells [6],prevented
same,DDR1a mediated invasion through collagen type 1,G140-DDR1a cells [6]; listed as GM60001,inhibited
same,DDR1a stimulated activation / enzymatic activity of MMP-2,"MMP-2; 25 μm, G140-DDR1a cells, collagen 1 stimulation",effectively inhibited; also recorded: prevented
same,migration of glioma cells,glioma cells,prevented
"Fibronectin: human Fibronectin, used to stimulate DDR1 Glioma cells",tyrosine phosphorylation of DDR1,DDR1 [2],phosphorylated; also recorded: resulted in tyrosine phosphorylation of DDR1
